Reference: patent US7498404B2, “Compositions, methods and uses for a novel family of peptides” (priority 2004, dated 2009)

How the values were obtained:
[1] = test system: Module 2 A-domain protein; experiment: ATP-PPi exchange assay, Module 2 A-domain; assay type: biochemical, Brevibacillus texasporus; conditions: 0.5 mM amino acid, 37° C., 15 min
Method: (§1) Cloning, overexpression, and purification of His10-tagged BT A-domain proteins. DNA fragments encoding the A-domains of the BT NRPS Modules 8, 5, 7, 4 and 2 (Bt8A, Bt5A, Bt7A, Bt4A and Bt2A) were PCR-amplified and the PCR products were inserted into the His10-tag recombinant protein expression vector pET16b (Novagen). The A-domain borders were determined as defined by (Konz, et al., 1999). The expression constructs were transformed into the E.coli BL21 -AI strain (Invitrogen). Transformants were grown in L-broth at 37° C. to an A600 of 0.6 and then induced with 1 mM IPTG (isopropyl-β-D-thiogalactopyranoside) plus 0.2% L-arabinose. The cells were allowed to grow for two additional hours at 30° C. before being harvested. Purification of the His10-tag recombinant proteins was achieved using the TALON metal affinity resins (BD Biosciences) under conditions recommended in the manual with modifications. Briefly, the E. coli cells were broken by sonication. Cell lysates were cleared by centrifugation at 25,000× g for one hour. His-tagged recombinant proteins were then incubated with the TALON resin, washed, and eluted with 500 mM imidazole. Eluted proteins were dialyzed against a buffer (50 mM HEPES, pH 8.0, 100 mM sodium chloride, 10 mM magnesium chloride, and 1 mM EDTA) and then analyzed with SDS PAGE plus Coomassie Blue staining. […] Concentrations of the purified proteins were determined by using the calculated molar extinction coefficient for the A280.
ATP-PPi exchange assay. ATP-PPi exchange assays were performed to determine the substrate specificity of an A-domain. ATP-PPi exchanges were assayed as previously described (Stachelhaus, et al., 1998) with minor modifications. The assay mixture contained 50 mM HEPES (pH 8.0), 100 mM NaCl, 10 mM MgCl2, 2 mM ATP, 0.5 mM amino acid, 0.05 mM PPi, 0.15 μCi tetrasodium [^32P]pyrophosphate. Exchange was initiated by addition of purified recombinant A-domain proteins to a total volume of 0.1 ml. The protein concentrations were 0.2 μM for Module 4 and Module 5 A-domains while 2 μM for Module 7 and Module 8 A-domains. After incubation at 37° C. for 15 min, the reaction was stopped by addition of 0.5 ml of Termination Mix (100 mM tetrasodium pyrophosphate, 3.5% HClO4, and 1.6% [w/v] activated charcoal). The charcoal was pelleted by centrifugation, washed first with 40 mM pyrophosphate plus 1.4% perchloric acid and then with water, and was re-suspended in 0.5 ml of water. The charcoal/water suspension was added to a scintillation vial containing 5.0 ml of scintillation fluid, and the bound radioactivity was determined by liquid scintillation counting. The apparent Km values were determined with substrate concentrations ranging from 0.1 to 10 mM.
Since a purified recombinant A-domain of an NRPS module can selectively and efficiently activate the cognate amino acid substrate of the NRPS module in an ATP-PPi exchange assay (Konz, et al., 1999; Mootz & Marahiel, 1997), ATP-PPi exchange assays have been used to experimentally establish NRPS module specificities and novel NRPS codons. Recombinant A-domains of Modules 8, 5, 7 ,4 and 2 of the BT NRPS were produced and purified as described in Methods and Materials. Almost completely soluble recombinant A-domain proteins were obtained. A-domain specificities were determined in ATP-PPi exchange and aa Km assays (see Methods and Materials), and the results are shown in FIG. 5. […]

straight run broilers = experiment: Growth promoting Studies 3-1 and 3-2, pelleted starter feed, batteries; assay type: in vivo, chicken; conditions: BT1583 12 ppm, BMD 50 ppm, COB 90 ppm, alone or combined
Text: Eight (8) study repetitions per treatment were used, again with 4 birds per pen.

[2] = substrate: CC(C)[C@H](N)C(=O)O; experiment: ATP-PPi exchange assay, Module 8 A-domain; assay type: biochemical, Brevibacillus texasporus; conditions: other: substrate 0.1 to 10 mM; pH 8.0
Method: as §1, with “Purification of the His10-tag recombinant proteins was achieved using the TALON metal affinity resins (BD Biosciences) under conditions recommended in the manual with modifications. Briefly, the E. coli cells were broken by sonication. Cell lysates were cleared by centrifugation at 25,000× g for one hour. His-tagged recombinant proteins were then incubated with the TALON resin, washed, and eluted with 500 mM imidazole.” left out
(§2) ATP-PPi exchange assay. […] The charcoal/water suspension was added to a scintillation vial containing 5.0 ml of scintillation fluid, and the bound radioactivity was determined by liquid scintillation counting. […]

[3] = substrate: CC[C@H](C)[C@H](N)C(=O)O; experiment: ATP-PPi exchange assay, Module 5 A-domain; assay type: biochemical, Brevibacillus texasporus; conditions: other: substrate 0.1 to 10 mM; pH 8.0
Method: as §1, with “Purification of the His10-tag recombinant proteins was achieved using the TALON metal affinity resins (BD Biosciences) under conditions recommended in the manual with modifications. Briefly, the E. coli cells were broken by sonication. Cell lysates were cleared by centrifugation at 25,000× g for one hour. His-tagged recombinant proteins were then incubated with the TALON resin, washed, and eluted with 500 mM imidazole.” left out
as §2

[4] = substrate: CC(C)[C@H](N)C(=O)O; experiment: ATP-PPi exchange assay, Module 5 A-domain; assay type: biochemical, Brevibacillus texasporus; conditions: other: substrate 0.1 to 10 mM; pH 8.0
Method: as §1, with “Purification of the His10-tag recombinant proteins was achieved using the TALON metal affinity resins (BD Biosciences) under conditions recommended in the manual with modifications. Briefly, the E. coli cells were broken by sonication. Cell lysates were cleared by centrifugation at 25,000× g for one hour. His-tagged recombinant proteins were then incubated with the TALON resin, washed, and eluted with 500 mM imidazole.” left out
as §2

[5] = substrate: CC[C@H](C)[C@H](N)C(=O)O; experiment: ATP-PPi exchange assay, Module 4 A-domain; assay type: biochemical, Brevibacillus texasporus; conditions: other: substrate 0.1 to 10 mM; pH 8.0
Method: as §1, with “Purification of the His10-tag recombinant proteins was achieved using the TALON metal affinity resins (BD Biosciences) under conditions recommended in the manual with modifications. Briefly, the E. coli cells were broken by sonication. Cell lysates were cleared by centrifugation at 25,000× g for one hour. His-tagged recombinant proteins were then incubated with the TALON resin, washed, and eluted with 500 mM imidazole.” left out
as §2

CSCC[C@H](N)C(=O)O [L-Met]
relative substrate activation (highest activity defined as 100%) [1]: 100%

N[C@@H](Cc1ccccc1)C(=O)O [L-Phe]
relative substrate activation (highest activity defined as 100%) [1]: 3.5%

CC[C@@]1([C@@H]2O[C@@H]([C@H]3O[C@@](O)(CO)[C@H](C)C[C@@H]3C)C[C@@H]2C)CC[C@H]([C@]2(C)CC[C@]3(C[C@H](O)[C@@H](C)[C@@H]([C@@H](C)[C@@H](OC)[C@H](C)C(=O)O)O3)O2)O1 [Monensin, reference compound]
20-day cumulative weight gain, Mean (straight run broilers; Table 18): 792.8438 | 21-day cumulative weight gain, estimated marginal Mean (straight run broilers; Table 20): 792.844 | 21-day cumulative weight gain, Duncan homogeneous subsets (straight run broilers; Table 21): 792.8438 | 20-day cumulative feed conversion rate, Duncan homogeneous subsets (straight run broilers; Table 25): 1.3712

B1: Module 8 A-domain protein (Brevibacillus texasporus) (protein)
chain: ALVFGEAQLTYRELNEKANQMARGLRKQGVLPDQVIGLLTDRSLEMIIAILAIFKAGGAYMPIDPSYPSERIQYMLADSRTHLLLVQKAEMIPANYQGEVLLLTEDSWMDENTDNLDLVNQAQDLAYVMYTSGSTGKPKGNLTTHQNIVKTIMNNGYMEITPNDRLLQLSNYAFDGSTFDIYSALLNGASLILVPTHVLMNPTDLASVIQDQHITVSFMTTSLFNTLVELDVTSLKHMRKVVFGGEKASIKHVEKALDYLGAGRLVNGYGPTETTVFATTYTVDHTIKETGIMPIGRPLNNTKVFILGADNQLQPIGALGELCVSGEGLARGYLNLPELTADRFVENPFMRGERMYRTGDLARWLPDGSIEYVGRIDEQVKIRGHRIELGEIEARLLEHPAISETVLLAKQDEQGHSFLCAYLVTNGAWSVAELRKHIKETLPDSMVPSYFIEIDKMPLTSNGKADKRALPEPDVQQVSSY
Km [2]: 2750 µM

B2: Module 5 A-domain protein (Brevibacillus texasporus) (protein)
chain: DKTIHQQFEQKVEENPDQIALLFKDKEITYGQLNAKANQFARVLRKHGVQPDQVVGLITDRSIEMMIGILAILKAGGAYLPIDPSYPLERITYMLEDSQAQLLIVQEAAMIPEGYQGKVLLLAEECWMQEEASNLELINDAQDLAYVMYTSGSTGKPKGNLTTHQNILRTIINNGFIEIVPADRLLQLSNYAFDGSTFDIYSALLNGATLVLVPKEVMLNPMELARIVREQDITVSFMTTSLFHTLVELDVTSMKSIRKVVFGGEKASYKHVEKALDYLGEGRLVNGYGPTETTVFATTYTVDSSIKETGIVPIGRPLNNTSVYILNENNQPQPIGVPGELCVGGAGIARGYLNRPELTAERFVDNPFLVGDRMYRTGDMARFLPDGNIEYIGRMDEQVKIRGHRIELGEIEKSLLEYPAISEAVLVAKRDEQGHSYLCAYVVSTDQWTVAKVRQHILEALPEYMVPSYFVELEKLPLTSNGKVDKRALPEPDRVITNEYV
Km [3]: 2780 µM | Km [4]: 1110 µM

B3: Module 4 A-domain protein (Brevibacillus texasporus) (protein)
chain: QLFEEQVDKNPNQIALVFKEEKLTYGEVNAKANQLAYVLRKQGVQPNDVIGIITERSPEMIIGILAIFKAGGAYMPIDPSYPAERIQYMLQDNQTKLLLVQKQEMIPANYQGEVLFLTQESWMHEETSNPAHITQAQALAYVMYTSGSTGEPKGILTTHQNIMKTVIHNGYVEITPGDCLSQLSNYAFDGSTFEIYGALLHGATLLLVTKEAVLNMNELARLIKKEQVTVSFMTTALFNTLVDLDITCFQSIRKVLFGGELASVKHVLKALDYLGEHRVINVYGPTETTVYATYYSVDHSMLTRASVPIGRPINNTKAYIVNTDGQPQPIGVVGELCIGGEGVACGYLNRPELTKKHFVDNPFVLGERMYCTGDLARFLPDGNIEYIGRMDEQVKIRGHRIELGEIEKVLLQHPAISETVLLAKRDEQGHSYLCAYIVGQVFWTVTELRQHLMESLPEYMVPSYFIEIEKLPLTANGKVDKRALPEPDRKMGSAYV
Km [5]: 500 µM
